From patent publication US20100093817A1, “Compounds” (BIAL - PORTELA & CA S.A., priority 2007, published 2010)
Structures can show the parent of a compound that is named as a salt.

Key:
[1] = target: T1, human dopamine-β-hydroxylase (Homo sapiens, UniProt P09172); experiment: Human DβH in vitro assay: β-hydroxylation of dopamine to noradrenaline, SK-N-SH cells as enzyme source; assay type: biochemical; set-up: key to In vitro DβH inhibition: + = inhibitory activity; details: for In vitro DβH inhibition / IC50: SK-N-SH cells as source of human DβH, 50 mM dopamine, test compounds 0.3 to 10,000 nM; for IC50: read-out: In vitro DβH inhibition (IC50 μM); for % control Mean ± SEM: human DβH in vitro assay
T1 construct: SK-N-SH cells (ATCC HTB-11), a human neuroblastoma derived cell line, were used as a source of human dopamine-β-hydroxylase; host or cells: SK-N-SH human neuroblastoma cells
T1 sequence (P09172 1-617): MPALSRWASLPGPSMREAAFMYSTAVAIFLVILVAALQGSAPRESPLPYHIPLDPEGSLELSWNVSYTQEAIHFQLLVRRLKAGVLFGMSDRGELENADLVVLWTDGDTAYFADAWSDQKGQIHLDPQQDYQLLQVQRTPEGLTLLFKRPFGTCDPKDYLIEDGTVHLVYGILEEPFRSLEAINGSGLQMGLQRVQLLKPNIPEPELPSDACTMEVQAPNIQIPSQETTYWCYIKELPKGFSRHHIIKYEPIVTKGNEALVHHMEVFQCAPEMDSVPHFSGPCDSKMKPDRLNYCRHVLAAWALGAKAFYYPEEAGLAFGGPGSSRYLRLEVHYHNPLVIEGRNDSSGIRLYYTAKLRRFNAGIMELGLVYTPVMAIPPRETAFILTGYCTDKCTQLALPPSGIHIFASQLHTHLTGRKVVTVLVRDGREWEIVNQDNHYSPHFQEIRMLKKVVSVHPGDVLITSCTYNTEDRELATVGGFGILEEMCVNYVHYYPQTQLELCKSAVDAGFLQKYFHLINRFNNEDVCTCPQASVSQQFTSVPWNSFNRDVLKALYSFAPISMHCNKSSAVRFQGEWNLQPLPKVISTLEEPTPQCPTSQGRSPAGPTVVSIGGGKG
Experimental: Dopamine-β-hydroxylase activity was evaluated by the ability to β-hydroxylate dopamine to noradrenaline as previously described (Kojima, K., Parvez, S. and Nagatsu T. 1993. Analysis of enzymes in catecholamine biosynthesis. In Methods in Neurotransmitter and Neuropeptide Research, pp. 349-380: Elsevier Science Publishers). SK-N-SH cells (ATCC HTB-11), a human neuroblastoma derived cell line, were used as a source of human dopamine-β-hydroxylase. SK-N-SH cells cultured in 24 well plates were preincubated for 20 min in a reaction medium containing 200 mM sodium acetate, 30 mM N-ethylmaleimide, 5 μM copper sulphate, 0.5 mg/ml catalase aqueous solution, 1 mM pargyline, 10 mM sodium fumarate and 20 mM ascorbic acid. Thereafter, cells were incubated for further 45 min in the reaction medium with added increasing concentrations of dopamine (0.5 to 100 mM). During preincubation and incubation, the cells were continuously shaken and maintained at 37° C. The reaction was terminated by the addition of 0.2 M perchloric acid. The acidified samples were stored at 4° C. before injection into the high pressure liquid chromatograph for the assay of noradrenaline. In experiments conducted with the aim of studying the effects of new dopamine-β-hydroxylase inhibitors on enzyme activity, test compounds (0.3 to 10,000 nM) of interest were added to the preincubation and incubation solutions; the incubation was performed in the presence of a concentration (50 mM) of dopamine 2.5 times the corresponding Km value as determined in saturation experiments.

[2] = literature finding; central as well as peripheral effects; cited from earlier work

Compound	In vitro DβH inhibition [1]	IC50 [1]	% control Mean ± SEM ([1]; compound at 5 μM)	crossing of the blood brain barrier (BBB) [2]	% control Mean ± SEM ([1]; compound at 0.5 μM)	% control Mean ± SEM ([1]; compound at 1 μM)
NCCc1c[nH]c(=S)n1[C@H]1COc2c(F)cc(F)cc2C1 [Compound I, (R)-5-(2-aminoethyl)-1-(6,8-difluorochroman-3-yl)-1,3-dihydroimidazole-2-thione, reference compound]	+	0.2 µM				
NCc1c[nH]c(=S)n1[C@H]1CCc2c(F)cc(F)cc2C1 [Nepicastat, reference compound]			0.4 ± 0.2 % control	cross the blood brain barrier		
CC(=O)NCCc1c[nH]c(=S)n1[C@H]1COc2c(F)cc(F)cc2C1 [compound II, (R)-N-(2-(3-(6,8-difluorochroman-3-yl)-2-thioxo-2,3-dihydro-1H-imidazol-4-yl)ethyl)acetamide]	+	0.5 µM				
O=S(=O)([O-])NCCc1c[nH]c(=S)n1[C@H]1COc2c(F)cc(F)cc2C1.[Na+] [compound VIII, Sodium (R)-2-(3-(6,8-difluorochroman-3-yl)-2-thioxo-2,3-dihydro-1H-imidazol-4-yl)ethylsulfamate]	+		3.5 ± 1.1 % control		32.1 ± 1.1 % control	20.3 ± 0.7 % control

More lines, main results first:

In vitro DβH inhibition [1]	IC50 [1]	Compound	% control Mean ± SEM ([1]; compound at 5 μM)	crossing of the blood brain barrier (BBB) [2]	% control Mean ± SEM ([1]; compound at 0.5 μM)	% control Mean ± SEM ([1]; compound at 1 μM)
+	0.6 µM	O=C(O)Cc1c[nH]c(=S)n1[C@H]1COc2c(F)cc(F)cc2C1 [compound III, (R)-2-(3-(6,8-difluorochroman-3-yl)-2-thioxo-2,3-dihydro-1H-imidazol-4-yl)acetic acid]				
+	1.8 µM	NC(=O)Cc1c[nH]c(=S)n1[C@H]1COc2c(F)cc(F)cc2C1 [compound IV, (R)-2-(3-(6,8-difluorochroman-3-yl)-2-thioxo-2,3-dihydro-1H-imidazol-4-yl)acetamide]				
+	0.5 µM	ONCCc1c[nH]c(=S)n1[C@H]1COc2c(F)cc(F)cc2C1 [compound V, (R)-1-(6,8-difluorochroman-3-yl)-5-(2-(hydroxyamino)ethyl)-1H-imidazole-2(3H)-thione hydrochloride]				
+		NCCc1c[nH]c(=S)n1[C@H]1COc2c(F)cc(F)cc2[C@@H]1O [compound VI, 5-(2-Aminoethyl)-1-((3S ,4S)-6,8-difluoro-4-hydroxychroman-3-yl)-1H-imidazole-2(3H)-thione hydrochloride]				
